Measured values from ChEMBL document CHEMBL4145655, “Confirmation of the Revised Structure of Samoquasine A and a Proposed Structural Revision of Cherimoline” (2018).
The source made the active and inactive calls. No cut-off for these calls is given here.

Experiments:
[1] = system: Panel NCI-60 (60 carcinoma cell lines); experiment: Cytotoxicity against human NCI60 cells at 10 uM after 48 hrs by sulforhodamine B assay; type: functional, cell-based
NUGC = experiment: Growth inhibition of human NUGC cells at 50 ug/ml relative to control; type: functional; conditions: read-out: GI
HONE1 cell line = experiment: Growth inhibition of human HONE1 cells at 50 ug/ml relative to control; type: functional; conditions: read-out: GI

Row | Structure (SMILES) | Activity [1] | inhibition of growth at 50 µg/mL (NUGC) | inhibition of growth at 50 µg/mL (HONE1 cell line)
1 | O=c1occc2c1cnc1ccccc12 | inactive | – | –
2 | O=c1[nH]ccc2c1cnc1ccccc12 | inactive | 63% | 62%
3 | Cn1ccc2c(cnc3ccccc32)c1=O | inactive | – | –
